Data set [1] deals with Human Keratinocytes. As to the kind of experiment: Glutathione assay (total glutathione after menadione challenge). The class given is cell-based. How it is done: Human Keratinocytes (Promocell, Heidelberg, Germany) were maintained in EpiLife® medium containing 60 uM calcium chloride and 1% Human Keratinocyte Growth Supplement (both media components from ThermoFisher Scientific) in a humidified incubator with an atmosphere containing 5% CO2 at 37° C. The medium was refreshed every 2-3 days. Subsequently, cells were trypsinized at 90% confluency and seeded at a density of 1×10^4 per well into 96-well plates with white wall and clear bottom. One or two days after seeding, cell medium was replaced with Hank's Balanced Salt Solution (HBSS), and keratinocytes were pre-treated with GAP (or 0.12-0.240 mM sodium hydroxide vehicle control, pH 7.5) alone or in combination with additional test reagents described above or L-cystine esters alone for 1-2 hours. The concentration of all amino acids constituting the GAP mixture used in this assay are designated in the data tables, and fully described in the abbreviations list below.
After one or two hours of pre-treatment with GAP or additional test reagents, alone or in combination, keratinocytes were then challenged with 25 uM menadione (Sigma-Aldrich), a known inducer of oxidative stress. After 18-20 hours, cells were harvested and analyzed for total glutathione levels using a commercially available kit (GSH-GSSG GLo Assay, Promega), a luminescence-based system for the detection and quantification of total glutathione in cultured cells. In summary, after cell treatment, the media was removed and replaced with a cell lysis reagent for 5 minutes at 20-25° C.; note, all remaining steps were also conducted at 20-25° C. Next, a luciferase generation reagent was added to each well and incubated for 30 minutes. Following this step, a luciferin detection reagent was added to each well and plates were incubated for 15 minutes. Finally, plates were then read for luminescence in a FlexStation 3 plate reader (Molecular Devices). Total glutathione levels were calculated after interpolation of glutathione concentrations from a standard curve. Experimental conditions were typically conducted in at least triplicate determinations. Statistical significance was calculated using 1-way ANOVA. Percent protection was calculated by using the calculated glutathione levels from each experiment in the following equation: […]

The test system of data set [2] is Human Keratinocytes. Briefly: Reactive Oxygen Species (ROS) assay. The data set is classed as cell-based. The note with it: 18 hours; for ROS % Protection (improvement vs. vehicle control + menadione) / activity at 20 µM: 20 uM + menadione; for activity at 20 µM / activity at 40 µM / activity at 80 µM / activity at 160 µM: Homo sapiens, Keratinocyte, read-out: ROS inhibition (% of vehicle control); for activity at 40 µM: 40 uM + menadione; for activity at 80 µM: 80 uM + menadione; for activity at 160 µM: 160 uM + menadione. How it is done: Human Keratinocytes (Promocell, Heidelberg, Germany) were maintained in EpiLife® keratinocyte medium containing 60 uM calcium chloride and 1% Human Keratinocyte Growth Supplement (HKGS) in a humidified incubator with an atmosphere containing 5% CO2 at 37° C. The medium was refreshed every other day. Subsequently, cells were trypsinized at 90% confluency and seeded at a density of 1-2×10^4 per well into 96-well plates with black wall and clear bottom. On the second day after seeding, cell medium was replaced with Hank's Balanced Salt Solution (HBSS) with or without menadione (10-25 uM), GAP, GAP vehicle (0.2 mM NaOH, pH 7.5), above-described additional test reagents, or combinations of GAP with additional test reagents or L-cystine esters alone, and incubated for additional 18 hours. For ROS detection, CellROX green (Life Tech, Thermo Fisher Scientific, Rockford, USA) reagent was added into each well to a final concentration of 15-25 uM and incubated for additional 2-4 hours at 37° C. in a humidified incubator. The ROS fluorescence was detected using a Tecan microplate reader (Excitation/Emission=490/525). Relative ROS production was calculated with normalization based on the vehicle control treatment which was set to 100%. Where indicated, percent protection was calculated as a comparison to menadione alone treatment, using the measured relative fluorescent units in the following equation: […]
ROS levels were evaluated together with cell viability because it is possible to get a false negative for ROS if treatment is so toxic, that at the time of assay, cells are dead (and there are no longer any detectable ROS). Decrease in ROS levels is meaningful if cells are still viable.

Data set [3] relates to Human Keratinocytes. As to the kind of experiment: Cell viability assay (CCK-8). The class given is cell-based. The following applies: 18 hours; for viability at 20 µM / viability at 40 µM / viability at 80 µM / viability at 160 µM: Homo sapiens, Keratinocyte, read-out: Cell viability (% of vehicle control); for viability at 160 µM: 160 uM + menadione. The method, then:
Human Keratinocytes (Promocell, Heidelberg, Germany) were maintained in EpiLife® keratinocyte medium containing 60 uM calcium chloride and 1% Human Keratinocyte Growth Supplement (HKGS). The medium was refreshed every other day. Subsequently, cells were trypsinized at 90% confluency and seeded at a density of 2×10^4 per well into 96-well transparent tissue culture plates. On the second day after seeding, cell medium was replaced with treatments as described above in ROS assay section. After 18 hours, […] (CCK-8) reagent (Dojindo, Kumamoto, Japan) was diluted 1:10 in HBSS and incubated with cells for 4 h at 37° C. in a humidified incubator. Optical absorption at 450 nm was measured using a Tecan Safire2 plate reader. Relative viability was calculated with normalization based on the vehicle control treatment, which was set to 100%.
Where indicated, percent protection was calculated as a comparison to menadione alone treatment, using the measured relative absorbance units in the following equation: […]

For data set [4] the following is noted: pH less than 2 or pH above 8; cited from earlier work.
Data set [5] has as its system Human primary melanocytes. Briefly: Melanin content assay (melanin synthesis inhibition). The data set is classed as cell-based. The note with it: Melanocyte, 72 hours treatment. The method, then: Human primary melanocytes (Cascade Biologics, now ThermoFisher Scientific) were grown in melanocytes growth medium (MGM) with human melanocyte growth supplement (both media components from ThermoFisher Scientific). Melanocytes were seeded at 5×10^4 cells/well in 24 well-plates and incubated in a humidified incubator at 37° C. with 5% CO2 atmosphere. After 24 hours of incubation, cell cultures were treated with the GAP amino acids or 12- hydroxystearic acid, alone or in combination. The vehicle control consisted of cells treated with the vehicle GAP (0.002 mM NaOH), and/or additional test reagent vehicle, . After treatment, cells were again incubated for 72 hours in a humidified incubator at 37° C. with 5% CO2 atmosphere. At the end of the 72 hour incubation, the culture medium was replaced with 120 uL/well of melanin content assay reagent (10% DMSO in 1M sodium hydroxide) and incubated for 1 hour at 60° C. in a shaker incubator. The supernatant was then transferred to a 384 well plate. The absorbance was measured by spectrophotometric analysis at 405 nm with a micro plate reader (GEnios Pro, Tecan).
The spectrophotometric optical density at 405 nm for untreated cells (no active) was considered as 100% melanin content. Relative melanin content for treated samples was calculated with normalization based on the untreated (media/vehicle) control.

Broadly, the viability is a read-out of living cells in per cent, often relative to untreated cells. Usually inhibition stands for the change of the read-out against control, counted positive when it falls.

Turning to `CCOC(=O)[C@@H](N)CSSC[C@H](N)C(=O)OCC.Cl.Cl` [DEC, Diethyl L-cystinate dihydrochloride], in the data set on Human Keratinocytes [1] (40 uM + menadione), the “Glutathione Synthesis, % Protection (improvement vs. vehicle control + menadione)” value (“Glutathione Synthesis, % Protection” for short) was 13^1,2% and the “Glutathione Synthesis, Mean (μm glutathione)” value (“Glutathione Synthesis, Mean” for short) is 0.54^1,2 μm. In the data set with Human Keratinocytes [2], the “ROS % Protection (improvement vs. vehicle control + menadione)” value is reported as 38.0^1,2%, the activity at 20 µM is 233%, the activity at 40 µM amounted to 212% and the activity at 80 µM worked out at 234%. In the data set on Human Keratinocytes [2], the activity at 160 µM came to 254%. For the same compound, in the data set with Human Keratinocytes [3] (20 uM + menadione), the viability at 20 µM came out at 110%. Also, the viability at 40 µM with Human Keratinocytes [3] (40 uM + menadione) is 127%. In the data set on Human Keratinocytes [3] (80 uM + menadione), the viability at 80 µM came to 132%. The viability at 160 µM in the data set with Human Keratinocytes [3] stood at 122%.

In the case of `COC(=O)[C@@H](N)CSSC[C@H](N)C(=O)OC.Cl.Cl` [CDME, L-Cystine dimethyl ester dihydrochloride], in the data set with Human Keratinocytes [1] (80 uM + menadione), the “Glutathione Synthesis, % Protection” value is 31^1,2%. Further, in the data set with Human Keratinocytes [2], the activity at 20 µM amounted to 108%, the activity at 40 µM is 111%, the activity at 80 µM came out at 114% and the activity at 160 µM is 97.9%. Further, the viability at 20 µM with Human Keratinocytes [3] (20 uM + menadione) amounted to 90.9%. In addition, the viability at 40 µM in the data set on Human Keratinocytes [3] (40 uM + menadione) worked out at 93.1%. Further, the viability at 80 µM with Human Keratinocytes [3] (80 uM + menadione) came to 87%. In the data set with Human Keratinocytes [3], the viability at 160 µM turned out to be 106%.

`N[C@@H](CSSC[C@H](N)C(=O)O)C(=O)O` [cystine]: the “solubility in aqueous solutions” value in data set [4] was “more soluble”.

For `CCCCCCc1ccc(O)cc1O` [HR, 4-hexylresorcinol, reference compound], the inhibition at 10 µM in data set [5] (10 uM) stood at 39%.

On to `CC(C)(C)OC(=O)[C@@H](N)CSSC[C@H](N)C(=O)OC(C)(C)C.Cl.Cl` [DTBC, Ditert-butyl L-cystinate dihydrochloride], for which, in the data set with Human Keratinocytes [1] (40 uM + menadione), the “Glutathione Synthesis, % Protection” value was 0^1% and the “Glutathione Synthesis, Mean” value is 0.17^1 μm. Further, in the data set on Human Keratinocytes [1] (80 uM + menadione), the “Glutathione Synthesis, % Protection” value is 1^1% and the “Glutathione Synthesis, Mean” value is 0.19^1 μm. Also, in the data set on Human Keratinocytes [2], the “ROS % Protection (improvement vs. vehicle control + menadione)” value worked out at 2.2%, the activity at 20 µM stood at 367%, the activity at 40 µM is 324% and the activity at 80 µM turned out to be 269%. Also, in the data set on Human Keratinocytes [2], the activity at 160 µM amounted to 221%. Further, in the data set on Human Keratinocytes [3] (20 uM + menadione), the “Cell viability % protection (improvement vs. vehicle control + menadione)” value (from here on “Cell viability % protection”) is listed as 6.0^1% and the viability at 20 µM worked out at 78.1%. In the data set with Human Keratinocytes [3] (40 uM + menadione), the “Cell viability % protection” value is listed as 3.0^1% and the viability at 40 µM was found to be 75.9%. Moreover, in the data set on Human Keratinocytes [3] (80 uM + menadione), the “Cell viability % protection” value was −0.1^1% and the viability at 80 µM came to 73.6%. For the same compound, the viability at 160 µM with Human Keratinocytes [3] was 104%.

For the compound `CCCCCCC(O)CCCCCCCCCCC(=O)O` (stereo not shown) [12-Hydroxystearic Acid, 12-hydroxystearic acid], in data set [5] (12-Hydroxystearic Acid 4 uM, alone or with GAP), the inhibition at 4 µM amounted to 7%. In addition, the inhibition at 8 µM in data set [5] (12-Hydroxystearic Acid 8 uM, alone or with GAP) came out at 10%.

(Values after patent US20200009034A1, “TOPICAL SKIN LIGHTENING ADDITIVE AND COMPOSITION WITH AMINO ACIDS AND PPAR ACTIVATING FATTY ACIDS” (Conopco, Inc., d/b/a UNILEVER, priority 2017, published 2020).)
